Test results reported in BindingDB's records for PubMed 9655904 (Parke-Davis Pharmaceutical Research, 1998).

Biological target: Fibroblast growth factor receptor 1 (Homo sapiens, UniProt P11362)
Sequence (P11362 whole entry): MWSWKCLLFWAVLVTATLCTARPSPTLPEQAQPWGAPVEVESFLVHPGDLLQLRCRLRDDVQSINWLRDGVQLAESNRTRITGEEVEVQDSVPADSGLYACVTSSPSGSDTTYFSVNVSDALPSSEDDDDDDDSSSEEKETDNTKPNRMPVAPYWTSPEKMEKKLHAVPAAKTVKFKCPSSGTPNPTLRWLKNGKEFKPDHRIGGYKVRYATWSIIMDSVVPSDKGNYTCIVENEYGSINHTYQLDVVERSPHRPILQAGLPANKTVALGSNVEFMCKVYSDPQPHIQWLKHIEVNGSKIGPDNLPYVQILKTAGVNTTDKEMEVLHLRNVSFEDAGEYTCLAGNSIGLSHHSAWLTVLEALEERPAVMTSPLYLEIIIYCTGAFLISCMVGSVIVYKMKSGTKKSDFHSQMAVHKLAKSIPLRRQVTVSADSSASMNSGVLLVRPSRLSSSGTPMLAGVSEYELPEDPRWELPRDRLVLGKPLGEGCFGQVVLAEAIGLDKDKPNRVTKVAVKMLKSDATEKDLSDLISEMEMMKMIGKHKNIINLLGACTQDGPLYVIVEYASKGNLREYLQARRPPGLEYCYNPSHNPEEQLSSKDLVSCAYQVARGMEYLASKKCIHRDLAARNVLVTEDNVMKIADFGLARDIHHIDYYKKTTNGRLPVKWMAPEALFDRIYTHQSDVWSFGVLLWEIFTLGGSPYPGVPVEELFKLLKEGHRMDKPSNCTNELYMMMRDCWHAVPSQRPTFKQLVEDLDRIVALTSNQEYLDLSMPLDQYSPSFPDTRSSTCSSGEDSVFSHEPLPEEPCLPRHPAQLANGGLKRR

Ki: 45.2 nM
SMILES: COc1cc(OC)cc(-c2cc3cnc(N)nc3nc2NC(=O)NC(C)(C)C)c1 [6-arylpyrido[2,3-d]pyrimidine deriv. 25]
